The text below walks through data of patent publication US20250041437A1, “HUMANIZED MUC1 ANTIBODY AND ANTIBODY DRUG CONJUGATE” (Sun Pharma Advanced Research Company Limited, priority 2023, published 2025).

One may read the IC50 as the concentration that inhibits the measured activity by half. Broadly, the Cmax is the peak of the concentration-time curve. What is called Tmax is the time from dosing to the highest level. For orientation: Vss means the apparent volume that relates the amount in the body to the concentration in plasma or blood. Low readings indicate little distribution into tissue, high ones wide distribution into tissue.

SMILES strings stand for the structures. Where a SMILES comes first, the peptide text is derived from it. [ ]: non-standard residue; d: D form. The star is where a group is joined. Dolaproine = CO[C@@H]([C@@H]1CCCN1)[C@@H](C)C(=O)O; Dil = CC[C@H](C)[C@H](NC)[C@@H](CC(=O)O)OC; X1 = C[C@@H](N*)[C@@H](O)c1ccccc1; NMeV = CN[C@H](C(=O)O)C(C)C

In one series the test system is SKOV3 derived xenograft. The following applies: mouse, in vivo.
The subject of series [1] is BxPC3 pancreatic carcinoma cells. As to the kind of experiment: Growth inhibition of human cancer cell lines, BxPC3. Particulars: read-out: MMAE IC50; BxPC3, free MMAE.
Series [2] deals with T47D breast carcinoma cells. As to the kind of experiment: Growth inhibition of human cancer cell lines, T47D. The class given is cell-based. The following applies: free MMAE.
Series [3] relates to COLO-357 pancreatic carcinoma cells. As to the kind of experiment: Growth inhibition of human cancer cell lines, COLO-357. The following applies: read-out: MMAE IC50; COLO-357, free MMAE.
Another series has as its system MCF7 derived xenograft. The following applies: mouse, in vivo.
Series [4] can be described thus: Single dose pharmacokinetics, COLO357 tumor bearing mouse, IV. The class given is in vivo. As for the experimental part: The objective of this study was to evaluate serum, tumor and liver pharmacokinetics of TAB, CAB and uMMAE following 3 mg/kg single IV administration of M5LM4-ADC and pharmacokinetics of MMAE following 0.06 mg/kg single IV administration of MMAE alone in a COLO357 tumor bearing mouse model.
The blood samples were collected from the mouse at 0.083, 0.5, 1, 2, 4, 8, 24, 48, 72, 96, 168 and 336 hours post-dose (n=3 mice/time point; sparse sampling design) through retro-orbital plexuses and serum was immediately harvested. At 24, 48, 72, 96, 168 and 336 hour time-points, the tumor and liver were collected. Analysis of total antibody (TAB) and conjugated antibody (CAB) was done by a fit for purpose ELISA based method and analysis of free payload (MMAE) was done by a fit for purpose LC-MS/MS based method. Pharmacokinetic analysis was performed by the non-compartmental analysis tool of Phoenix WinNonlin® software.

Where [5] appears, read: MMAE, MMAE 0.06 mg/kg IV, liver.
Setting [6] is: MMAE, MMAE 0.06 mg/kg IV, serum.
Where [7] appears, read: MMAE, MMAE 0.06 mg/kg IV, tumor.
Setting [8] is: single IV MMAE, COLO357 tumor bearing mice.

For the molecule `CC[C@H](C)[C@@H]([C@@H](CC(=O)N1CCC[C@H]1[C@H](OC)[C@@H](C)C(=O)N[C@H](C)[C@@H](O)c1ccccc1)OC)N(C)C(=O)[C@@H](NC(=O)[C@@H](NC)C(C)C)C(C)C` [Free MMAE, monomethyl auristatin E, reference compound] (H-[NMeV]V[Dil][Dolaproine]-X1), in the series with SKOV3 derived xenograft, the mortality is 3 of 8 and the “tumor growth inhibition (TGI)” value worked out at 106±10%. Also, the concentration for half-maximal inhibition (IC50) in series [1] stood at 0.02 nM. Moreover, the IC50 in series [2] amounted to 0.07 nM. In series [3], the concentration for half-maximal inhibition (IC50) turned out to be 0.16 nM. Also, the mortality in the series with MCF7 derived xenograft was 3 of 8. In series [4] (setting [5]), this molecule returned an AUC0-336 of 0.19 µM·h, a peak concentration (Cmax) of 1.5 nM and a T1/2 of 182 h. Also, in series [4] (setting [6]), the AUC0-24 was 0.018 µM·h, the AUC0-336 is 0.021 µM·h, the AUCINF amounted to 0.021 µM·h and the CL amounted to 64 mL/min/kg. In series [4] (setting [6]), the peak level (Cmax) was 8 nM, the T1/2 was 5 h, the time to peak (Tmax) came to 4.8 min and the distribution volume (Vss) is given as 34 L/kg. In series [4] (setting [7]), the AUC0-336 stood at 1.391 µM·h, the “AUC ratio (Kp)” value came out at 66, the Cmax was found to be 11 nM and the T1/2 stood at 154 h. Further, in series [4] (setting [8]), the “tumor exposure higher than in serum” value is given as 66 fold and the “tumor exposure higher than in the liver” value is given as 7 fold.
